Test results reported in patent US7625713B2, “Process for identifying a ligand that binds to the NEP binding site for the SMR1 pentapeptide” (Institut Pasteur, priority 2000, dated 2009).

Legend:
NEP [1] = molecular target: T1, NEP (Rattus norvegicus, UniProt P07861); test: Met-enkephalinase activity of rat spinal cord slices, Met-enkephalin RIA; assay type: biochemical; settings: 10 μM, fresh spinal cord tissue, 20 min at 25° C.
T1 construct: incubations of membrane and fresh tissue slice preparations from nervous tissues; from tissue; host or cells: dorsal spinal cord of male Wistar rats (fresh slices or 100 000 x g membrane fraction)
T1 sequence (P07861 1-750): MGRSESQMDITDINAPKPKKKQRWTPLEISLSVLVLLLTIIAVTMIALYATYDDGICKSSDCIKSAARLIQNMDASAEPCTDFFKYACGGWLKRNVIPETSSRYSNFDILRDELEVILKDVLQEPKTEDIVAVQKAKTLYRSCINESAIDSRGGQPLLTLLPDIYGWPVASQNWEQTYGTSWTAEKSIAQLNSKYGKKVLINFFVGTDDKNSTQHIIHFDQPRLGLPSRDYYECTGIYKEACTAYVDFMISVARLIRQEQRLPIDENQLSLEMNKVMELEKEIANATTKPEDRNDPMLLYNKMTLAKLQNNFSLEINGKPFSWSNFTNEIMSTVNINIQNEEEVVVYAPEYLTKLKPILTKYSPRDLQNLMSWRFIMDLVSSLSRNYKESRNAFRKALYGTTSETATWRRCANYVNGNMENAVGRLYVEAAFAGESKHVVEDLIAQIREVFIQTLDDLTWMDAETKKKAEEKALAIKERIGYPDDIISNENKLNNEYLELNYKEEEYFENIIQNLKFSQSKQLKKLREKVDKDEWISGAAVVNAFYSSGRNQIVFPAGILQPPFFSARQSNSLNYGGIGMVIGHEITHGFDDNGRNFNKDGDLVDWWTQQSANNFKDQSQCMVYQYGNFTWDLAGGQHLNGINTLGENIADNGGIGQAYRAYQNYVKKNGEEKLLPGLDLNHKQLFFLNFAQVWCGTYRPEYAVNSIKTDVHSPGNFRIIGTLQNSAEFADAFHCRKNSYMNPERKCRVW
Procedure: FIG. 2-A: […] The organs are rapidly removed, dissected on ice, freed of nerve fibers and of adipose tissues and then washed in cold oxygenated glucose- and bicarbonate-containing Krebs Ringer (KRBG) solution, whose composition is the following: 120 mM NaCl-5 mM KCl-1.2 mM KH2PO4-27.5 mM NaHCO3-2.6 mM CaCl2-0.67 mM MgSO4-5.9 mM glucose. The slices of tissues are prepared either manually with the aid of a scalpel (1-2 mm thick), or mechanically with the aid of a “Tissue Chopper” (1 mm thick). Slices are then dispersed into reaction tubes where they are subjected to three successive washes in ice-cold oxygenated KRBG. […] For the experiments of analysis of the NEP peptidase activity, an ex vivo model using incubations of membrane and fresh tissue slice preparations from nervous tissues that are known to be appropriate for exploring NEP peptidase activity: i.e. the dorsal zone of rat spinal cord, was first developed. The metabolism rate of the NEP-sensitive peptides was measured using the both NEP substrates involved in the signaling of the nociceptive response: the neuropeptides Met-enkephalin and Substance P. […] (NEN, 12.5-25 nM) were used. The objective was to measure the NEP-specific endoproteolysis of these substrates. […] Furthermore, for studying the functional role of […] NO: 2), the reaction was carried out in the presence of the SMR1-peptide alone or combined with specific inhibitors of membrane peptidases which could inactivate the […] […] Herein, a competitive RIA system has been used: the quantity of radioactive antigen bound to the antibody decreases in a manner inversely proportional to the quantity of antigen contained in the standard solution or in the sample. […] The activity of enkephalinase NEP is monitored by quantification of the disappearance of the initial Met-enkephalin substrate. […] The radiolabeled antigen is iodinated Met-enkephalin (^125I-Met-Enk enkephalin) with a specific radioactivity estimated at 3000 Ci/mmol. […] After centrifugation, the bound radioactivity of the precipitate is quantified using a gamma-spectrometer.

NEP [2] = molecular target: T1, NEP; test: Met-enkephalin hydrolysis by rat spinal cord slices and membrane preparations, RP-HPLC analysis; assay type: biochemical; settings: 10 μM alone, spinal cord slices, 20 min at 25° C., 10 μM Met-enkephalin
Procedure: FIG. 2-B: […] Retention time) recovered after 20 min. incubation at 25° C. with 1 mg fresh tissue slices in a 1 ml final volume of KRBG buffer. The organs are rapidly removed, dissected on ice, freed of nerve fibers and of adipose tissues and then washed in cold oxygenated glucose- and bicarbonate-containing Krebs Ringer (KRBG) solution, whose composition is the following: 120 mM NaCl-5 mM KCl-1.2 mM KH2PO4-27.5 mM NaHCO3-2.6 mM CaCl2-0.67 mM MgSO4-5.9 mM glucose. The slices of tissues are prepared either manually with the aid of a scalpel (1-2 mm thick), or mechanically with the aid of a “Tissue Chopper” (1 mm thick). Slices are then dispersed into reaction tubes where they are subjected to three successive washes in ice-cold oxygenated KRBG. […] The organs dissected out and washed in ice-cold KRBG are homogenized at 4° C. in 10 volumes (vol./wt.) of 50 mM Tris/HCl buffered at pH 7.2, using a Teflon-glass homogenizer (3×5 sec.). […] The metabolism rate of the NEP-sensitive peptides was measured using the both NEP substrates involved in the signaling of the nociceptive response: the neuropeptides Met-enkephalin and Substance P. […] Their identification and relative quantification (peak height) are checked by continuously monitoring the UV absorbance at 254 nm of column outflow. […]

male rats = test: Pin pain test; assay type: in vivo, rat
Procedure: The 3-min test session was performed 5 min after intravenous. rat tail vein administration of sialorphin or its vehicle. Naloxone (0.3 mg per kg body weight) was injected subcutaneously 15 min before sialorphin administration. Time in centre field sector (FIG. 6-C) (central square of the open-field without pin) and activity (FIGS. 6-A and 6-B) in peripheral squares (overlayed with pins) during the 3-min test session. Each value represents the mean±sem of 8 animals per group. […] Control group corresponded to pain response in vehicle-treated rats. 50 μg/kg sialorphin, 100 μg/kg sialorphin, 100 μg/kg sialorphin plus naloxone 0.3 mg/kg.
To extend the insight into the in vivo possible antinociceptive property of sialorphin through enkephalin-degrading enzyme inhibition, its effects were assessed in rat model of pain, i.e. the pin pain test, (Hebert et al. (1999) Physiology & Behavior 67, 99-105) in which the various behavioural parameters of pain responses were recorded with a 3-min cutoff time.
The in vivo activity of sialorphin was tested on the pin pain assay using male rats (350-400 g, Charles Rivers). The experimental device consists in an open-field (45×45×40 cm) which is divided into nine equal squares (150×150 mm), eight of them are peripheral and one is central. The peripheral squares are overlayed with stainless steel pins (2/cm2, length 8 mm and diameter 0.6 mm). The test consisted in placing the rat in the central square of the open-field and recording its different behaviours (cut-off time, 3 min). Two days before the pain test, the rats were familiarised with the experimental device without pins for 20 min, so as to reduce the stress linked to the spatial neophobia. All statistical analyses were carried out using the Statview 5 statistical package.

[3] = naloxone 0.3 mg per kg subcutaneous, prior to sialorphin

protection of Met-enkephalin from degradation (NEP [1])	inhibition of Met-enkephalinase activity (Met-enkephalin degradation) (NEP [2])	Compound	reversal of the sialorphin-effect on behavioural parameters of noxious response (male rats; [3])	reversal of the sialorphin-effect on time in central area (male rats; [3])	reversal of the sialorphin-effect on vocalisation parameter (male rats; [3])	time in the central area of the open-field (male rats; sialorphin plus naloxone 0.3 mg/kg s.c. 15 min before sialorphin)
96%	complete inhibition	CC(C)C[C@H](NP(=O)(O)O[C@@H]1O[C@@H](C)[C@H](O)[C@@H](O)[C@H]1O)C(=O)N[C@@H](Cc1c[nH]c2ccccc12)C(=O)O [Phosphoramidon, reference compound]	–	–	–	–
100%	–	O=C(O)CNC(=O)C(CS)Cc1ccccc1 (stereo not shown) [Thiorphan]	–	–	–	–
–	–	C=CCN1CC[C@]23c4c5ccc(O)c4O[C@H]2C(=O)CC[C@@]3(O)[C@H]1C5 [naloxone, reference compound]	42-63%	56%	20%	112.38 ± 17.44 s
